Data: patent US6399649B1, “Compositions and methods for the treatment of chronic lymphocytic leukemia” (Boston Medical Center Corporation, priority 1998, dated 2002)

Assays:
Type 4 enzymes = settings: cited from earlier work
[1] = test system: PDE activity in CLL cells; test: cAMP PDE assay on CLL cell lysates; type: biochemical, human; settings: 10 uMol/L
From the text: The technique of Robiesek et al., itself adapted from an assay described by Thompson and Appleman, was used in modified form. S. A. Robicsek et al., “Multiple high-affinity cAMP-phosphodiesterases in human T-lymphocytes,” Biochem. Pharmacol. 42:869 (1991). W. J. Thompson and M. M. Appleman, “Multiple cyclic nucleotide phosphodiesterase activities from rat brain,” Biochemistry 10:311 […]. 150 million purified CLL cells were pelleted and sonicated (Branson 350 Sonifier with micropit probe, output =2, 50% duty cycle) on ice in 1.0 mL of a buffer which contained 20 mMol/L Tris (pH 6.8), 1 mMol/L EDTA, aprotinin (50 u/mL), pepstatin (1 mg/mL), PMSF (1 mMol/L) and 3.75 mMol/L b-ME. Assay buffer contained 100 mMol/L Tris (pH 8.0), 20 mMol/l MgCl2, 0.2% BSA and 7.5 mMol/L b-ME. [^3H]-cAMP (NEN, Boston, Mass.) was incubated with PDE for 10 minutes at 30° C. in 20 uL volumes (10 uL of sonication buffer and 10 uL of assay buffer) which contained 0.22 units of alkaline phosphatase. 10 uMol/L rolipram or 0.2 mMol/L calcium/20 nMol/L calmodulin were added to the assay buffer as appropriate. Reactions were halted by the addition of 0.5 mL of a 1:3 slurry w/v slurry of AG1-X8 anion exchange resin and a mixture of equal volumes of water and isopropanol. […] The radiolabelled nucleosides in the supernatant were counted using Ecoscint scintillation fluid (National Diagnostics, Atlanta, Ga.). […]

CLL cells = test: DNA ladder gel assay; type: cell-based, human; settings: 72 hours; 10 uMol/L rolipram, 40 uMol/L forskolin
Description: 10 million purified CLL cells were harvested by centrifugation following exposure to drugs during a 72 hour tissue culture incubation. Cells were lysed in 0.5 mL of 20 mMol/L Tris (pH 7.4), 0.4 mMol/L EDTA, 0.25% Triton X. After 15 minutes of incubation at room temperature, nuclei were removed by centrifugation at 14,000 rpm (RCF=16,000). The supernatant was transferred to a new tube and soluble DNA precipitated overnight at −20° C. following the addition of […] of 5 Mol/L NaCl and […] of isopropanol. After centrifugation at 14000 rpm for 10 minutes, followed by a 70% ethanol wash, the pellet was resuspended in 20 uL of 10 mMol/L Tris (pH 8.0), 1 mMol/L EDTA, 0.1 mg/mL RNase and incubated at 37° C. for 30 minutes prior to electrophoresis on 1.6% TBE agarose gels. DNA fragments were visualized by UV light after staining the gels with ethidium bromide.
Consequently, a study of the activity of type 4-specific PDE inhibitors as inducers of cAMP-mediated apoptosis in leukemic cells from CLL patients was carried out. CLL cells were incubated for 72 hours either alone or with 10 uMol/L rolipram, 40 uMol/L forskolin or both agents. We tested whether rolipram induces intemucleosomal DNA fragmentation characteristic of apoptosis by isolating soluble DNA from the leukemic cells with detergent treatment, then removing DNA from intact non-apoptotic nuclei by centrifugation. […]

For `COc1ccc(C2CNC(=O)C2)cc1OC1CCCC1` (racemic) [rolipram, 4-(3-cyclopentyloxy-4-methoxyphenyl)-2-pyrrolidone], the IC50 (Type 4 enzymes) is given as 1000 nM, the “PDE activity in CLL cells” value [1] is given as “inhibited” and the “internucleosomal DNA fragmentation” value (CLL cells) is given as “pronounced internucleosomal DNA fragmentation”.
